Test results: US20040253192A1, “Breath Freshening and Oral Cleansing Product Using Cardamom Oil” (priority 2002, published 2004)
In brackets after ≈: the same amount, converted by molar mass.

Assays:
Assay type in all cases: cell-based
Porphyromonas gingivalis [1] = assay: MIC (minimum inhibitory concentration) study, 96 well microtiter plates; details: P. gingivalis, 48 hours at 37° C., turbidity at 660 nm
Description: (§1) In vitro tests were conducted with a gram positive supragingival plaque bacterium, Streptococcus mutans. In addition, two subgingival plaque bacteria associated with oral malodor were tested, Porphyromonas gingivalis and Fusobacterium nucleatum. The MIC (Minimum Inhibitory Concentrations) study protocol is as follows. Chlorhexidine was used as a positive control and sterile water was used as a negative control. Cardamom oil was suspended in 10% methanol with 3.8% Tween 80. […] 96 well microtiter plates were used for this study. Each well contained 5×10^5 colony forming units/ml of bacteria, serially diluted agents and bacterial growth medium. All bacterial cultures were incubated at 37° C. and stationary. Bacterial growth was estimated spectrophotometrically at 660 nm, after 48 hours. The MIC for each test bacteria was defined as the minimum concentration of test compound limiting turbidity to […].

Fusobacterium nucleatum [2] = assay: as above; details: F. nucleatum, 48 hours at 37° C., turbidity at 660 nm
Description: as §1

Porphyromonas gingivalis [3] = assay: MBC (minimum bactericidal concentration) determination, plating on blood agar; details: P. gingivalis, lowest concentration killing at least 99.9% of initial inoculum, plates 48 hours at 37° C.
Description: (§2) The MBC (Minimum bactericidal concentrations) were determined using the 96 well microtiter plate serial dilutions as described above for MIC studies. Serial dilution of cultures in wells showing no visible growth were performed and 10 microliters of culture were plated in triplicate on blood agar plates. Viable colonies were scored after incubation of the plates for 48 hours at 37° C. For each test bacterium, the number of CFU/ml were determined in the initial inoculum. The MBC was defined as the lowest concentration of a test compound that killed at least 99.9% of the cells present in the initial inoculum.

Fusobacterium nucleatum [4] = assay: as above; details: F. nucleatum, lowest concentration killing at least 99.9% of initial inoculum, plates 48 hours at 37° C.
Description: as §2

- MIC (Porphyromonas gingivalis [1]): 1.25 µg/mL (≈ 2.47 µM)
- MIC (Fusobacterium nucleatum [2]): 1.25 µg/mL (≈ 2.47 µM)
Compound: [H]/N=C(\N/C(=N/[H])NCCCCCCNC(=N)NC(=N)Nc1ccc(Cl)cc1)Nc1ccc(Cl)cc1 [Cholorhexidine, Chlorhexidine]
- MBC (Porphyromonas gingivalis [3]): 1.25 µg/mL (≈ 2.47 µM)
- MBC (Fusobacterium nucleatum [4]): 1.25 µg/mL (≈ 2.47 µM)
